The results in this text go back to publication PMC4608773, “Elisidepsin Interacts Directly with Glycosylceramides in the Plasma Membrane of Tumor Cells to Induce Necrotic Cell Death” (PLoS ONE, 2015).

The subject of one test is HCT-116 cells. The test is described as follows: cells. Here is the method: (§1) Cells were seeded in 96-well microtiter plates and maintained at 37°C and 5% CO2 in drug-free medium before treatment with vehicle alone or elisidepsin at the concentrations and times indicated in the text. For cell survival quantification, a colorimetric assay using SRB was used. Briefly, after treatment, cells were washed twice with phosphate buffered saline (PBS), fixed for 25 min in 1% glutaraldehyde solution, rinsed twice with PBS, stained in 0.4% SRB-1% acetic acid solution for 30 min, rinsed several times with 1% acetic acid solution, and air-dried. […] Results are expressed as percentage of control cell survival and represent the mean of at least three independent experiments. IC50, half-maximal inhibitory concentration, was used as a reference value.

Test [1] concerns HCT-116-Irv cells (elisidepsin-resistant subline). The test is described as follows: cells. To be noted: for IC50: read-out: HCT-116-Irv (IC50), cell growth half-maximal inhibitory concentration; for RR (resistance ratio): fold change between IC50 values from HCT-116-Irv and HCT-116: negative values where HCT-116-Irv is the more sensitive line. As to the method: B16 and GM95 cells were maintained in DMEM with the same supplements and conditions.
as §1

A further test deals with B16 cells. Description: Cell viability assay (SRB colorimetric). The class given is cell-based, mouse. As to the method: as §1
The subject of test [2] is GM95 cells (UGCG-deficient B16 mutant). Description: Cell viability assay (SRB colorimetric). The class given is cell-based, mouse. To be noted: for IC50: read-out: GM95 (IC50), cell growth half-maximal inhibitory concentration; for RR: fold change between IC50 values from GM95 and B16: negative values where GM95 is the more sensitive line. Here is the method: as §1
The target in the next test is Elisidepsin. The test is described as follows: FRET or BRET; two-photon FLIM-FRET, phasor analysis, on live HCT-116 cells in Tyrode-glucose buffer; mix of donor Irv-OG488 200 nM, acceptor Irv-A555 800 nM and elisidepsin 3 μM added to the cells; assemblies seen in the plasma membrane. On the technique in general: Bioluminescence resonance energy transfer reports proximity on the nanometre scale.

Where [3] appears, read: Homo sapiens, HCT-116, read-out: HCT-116 (IC50), cell growth half-maximal inhibitory concentration.
Setting [4] is: read-out: HCT-116 (IC50), cell growth half-maximal inhibitory concentration, SRB assay, 96-well, mean of three different experiments, exposure time not given.
[5] abbreviates: SRB assay, 96-well, mean of three different experiments, exposure time not given.
The mark [6] stands for this setting: SRB assay, mean of three different experiments, read-out: B16 (IC50), cell growth half-maximal inhibitory concentration.
[7] abbreviates: SRB assay, mean of three different experiments.
The mark [8] stands for this setting: Mus musculus, B16, read-out: B16 (IC50), cell growth half-maximal inhibitory concentration.

Where two headings read alike, the source gives them in different places.

Take `C[C@@H]1[C@H](O)[C@@H](C)/C=C/C=C/C=C/C=C/C=C/C=C/C=C/[C@H](O[C@@H]2O[C@H](C)[C@@H](O)[C@H](N)[C@@H]2O)C[C@@H]2O[C@](O)(C[C@@H](O)C[C@@H](O)[C@H](O)CC[C@@H](O)C[C@@H](O)CC(=O)O[C@H]1C)C[C@H](O)[C@H]2C(=O)O` [Amphotericin B]: the IC50 turned out to be 5200 nM with HCT-116 cells (setting [3]) and 6100 nM in test [1] (Homo sapiens). The “RR (resistance ratio): fold change between IC50 values from HCT-116-Irv and HCT-116” value in test [1] is 1.2.
`N.N.[Cl][Pt][Cl]` [Cisplatin]: the IC50 is 9800 nM in the test with HCT-116 cells (setting [4]), 3600 nM in test [1] (setting [5]), 18000 nM with B16 cells (setting [6]) and 9400 nM in test [2] (setting [7]). Moreover, the “RR (resistance ratio): fold change between IC50 values from HCT-116-Irv and HCT-116” value in test [1] is -2.7. Moreover, the “RR: fold change between IC50 values from GM95 and B16” value (shortened to “RR: fold change between IC50 values”) in test [2] is recorded as -2.0.
Take `O=c1[nH]cc(F)c(=O)[nH]1` [5-FU, 5-fluorouracil]: the values for the IC50 (in the test with HCT-116 cells (setting [3]); in test [1] (Homo sapiens)) were 4000 nM and 11000 nM, respectively. Moreover, the “RR (resistance ratio): fold change between IC50 values from HCT-116-Irv and HCT-116” value in test [1] came out at 2.8.
Consider `COc1cc2c(c(OC)c1OC)-c1ccc(OC)c(=O)cc1[C@@H](NC(C)=O)CC2` [Colchicine], for which the values for the IC50 (in the test on HCT-116 cells (setting [3]); in test [1] (Homo sapiens)) were 3.9 nM and 2.8 nM, respectively.
As to Syringomycin E, the IC50 in the test with HCT-116 cells (setting [4]) turned out to be 20000 nM; in test [1] (setting [5]), 15000 nM; in the test on B16 cells (setting [6]), 11000 nM; in test [2] (setting [7]) it was 9000 nM. The “RR (resistance ratio): fold change between IC50 values from HCT-116-Irv and HCT-116” value in test [1] is -1.4. Also, the “RR: fold change between IC50 values” value in test [2] is -1.3.
For the compound `CC(=O)O[C@H]1C(=O)[C@@]2(C)[C@H]([C@H](OC(=O)c3ccccc3)[C@]3(O)C[C@H](OC(=O)[C@H](O)[C@@H](NC(=O)c4ccccc4)c4ccccc4)C(C)=C1C3(C)C)[C@]1(OC(C)=O)CO[C@@H]1C[C@@H]2O` [Paclitaxel], the IC50 in the test on HCT-116 cells (setting [3]) amounted to 6.9 nM; in test [1] (Homo sapiens), 8.3 nM; with B16 cells (setting [8]), 15 nM; in test [2] (Mus musculus), 34 nM. Also, the “RR (resistance ratio): fold change between IC50 values from HCT-116-Irv and HCT-116” value in test [1] is recorded as 1.2. Besides, the “RR: fold change between IC50 values” value in test [2] worked out at 2.2.
Regarding `CCC1=C[C@@H]2CN(C1)Cc1c([nH]c3ccccc13)[C@@](C(=O)OC)(c1cc3c(cc1OC)N(C)[C@H]1[C@@](O)(C(=O)OC)[C@H](OC(C)=O)[C@]4(CC)C=CCN5CC[C@]31[C@@H]54)C2` [Vinorelbine], the IC50 in the test with HCT-116 cells (setting [3]) was determined as 160 nM; in test [1] (Homo sapiens), 190 nM. Further, the “RR (resistance ratio): fold change between IC50 values from HCT-116-Irv and HCT-116” value in test [1] is given as 1.1.
Regarding `CC[C@]1(O)C[C@@H]2CN(CCc3c([nH]c4ccccc34)[C@@](C(=O)OC)(c3cc4c(cc3OC)N(C)[C@H]3[C@@](O)(C(=O)OC)[C@H](OC(C)=O)[C@]5(CC)C=CCN6CC[C@]43[C@@H]65)C2)C1` [Vinblastine], the IC50 in the test with HCT-116 cells (setting [3]) was 0.32 nM; in test [1] (Homo sapiens) it was 0.41 nM. In test [1], the “RR (resistance ratio): fold change between IC50 values from HCT-116-Irv and HCT-116” value is given as 1.3.
Regarding `Nc1ccn([C@@H]2O[C@H](CO)[C@@H](O)C2(F)F)c(=O)n1` [Gemcitabine], the IC50 in the test with HCT-116 cells (setting [3]) came to 0.63 nM; in test [1] (Homo sapiens) it was 0.67 nM; with B16 cells (Mus musculus, B16, SRB assay, mean of three different experiments, read-out: B16 (IC50), cell growth half-maximal inhibitory concentration) it was 5.6 nM; in test [2] (Mus musculus, SRB assay, mean of three different experiments), 8.1 nM. Further, the “RR (resistance ratio): fold change between IC50 values from HCT-116-Irv and HCT-116” value in test [1] was 1.1. For the same compound, in test [2], the “RR: fold change between IC50 values” value came to 1.4.
Consider `CN(Cc1cnc2nc(N)nc(N)c2n1)c1ccc(C(=O)N[C@@H](CCC(=O)O)C(=O)O)cc1` [Methotrexate], for which the IC50 in the test on HCT-116 cells (setting [3]) worked out at 37 nM; in test [1] (Homo sapiens) it was 77 nM; in the test on B16 cells (setting [8]), 500 nM; in test [2] (Mus musculus), 370 nM. In addition, the “RR (resistance ratio): fold change between IC50 values from HCT-116-Irv and HCT-116” value in test [1] was determined as 2.1. Besides, the “RR: fold change between IC50 values” value in test [2] is recorded as -1.4.
As for `COc1cccc2c1C(=O)c1c(O)c3c(c(O)c1C2=O)C[C@@](O)(C(=O)CO)C[C@@H]3O[C@H]1C[C@H](N)[C@H](O)[C@H](C)O1` [Doxorubicin], the IC50 came out at 140 nM in the test on HCT-116 cells (setting [3]), 99 nM in test [1] (Homo sapiens), 180 nM with B16 cells (setting [8]) and 94 nM in test [2] (Mus musculus). In addition, the “RR: fold change between IC50 values” value in test [2] is -1.9.
`CC(=O)O[C@@]12CO[C@@H]1C[C@H](O)[C@@]1(C)C(=O)[C@H](O)C3=C(C)[C@@H](OC(=O)[C@H](O)[C@@H](NC(=O)OC(C)(C)C)c4ccccc4)C[C@@](O)([C@@H](OC(=O)c4ccccc4)[C@H]21)C3(C)C` [Docetaxel]: the IC50 in the test on HCT-116 cells (setting [3]) was found to be 2.9 nM; in test [1] (Homo sapiens) it was 1.8 nM.
On to `C#Cc1cccc(Nc2ncnc3cc(OCCOC)c(OCCOC)cc23)c1` [Erlotinib], for which the IC50 in the test on HCT-116 cells (setting [3]) came out at 32000 nM; in test [1] (Homo sapiens), 16000 nM.
With `COc1cc([C@@H]2c3cc4c(cc3[C@@H](O[C@@H]3O[C@@H]5CO[C@@H](C)O[C@H]5[C@H](O)[C@H]3O)[C@H]3COC(=O)[C@H]23)OCO4)cc(OC)c1O` [Etoposide], the IC50 with HCT-116 cells (setting [3]) was 1200 nM; in test [1] (Homo sapiens), 960 nM.
Take `CO[C@@]12[C@H](COC(N)=O)C3=C(C(=O)C(C)=C(N)C3=O)N1C[C@@H]1N[C@@H]12` [Mitomycin C]: the IC50 was found to be 330 nM in the test with HCT-116 cells (setting [3]), 300 nM in test [1] (Homo sapiens), 5700 nM in the test on B16 cells (setting [8]) and 2500 nM in test [2] (Mus musculus). Further, the “RR: fold change between IC50 values” value in test [2] is reported as -2.3.
As to Elisidepsin (peptide), the FRET efficiency with Elisidepsin came to 60%.
In the case of `CCCCCCCCCCCCCCCCCCOCC(COP(=O)([O-])OCC[N+](C)(C)C)OC` (stereo not shown) [Edelfosine], the IC50 (with HCT-116 cells (setting [3]); in test [1] (Homo sapiens)) was 29000 nM each time. The “RR (resistance ratio): fold change between IC50 values from HCT-116-Irv and HCT-116” value in test [1] was found to be 1.0.
In the case of `C/C(=C\c1csc(C)n1)[C@@H]1C[C@@H]2O[C@]2(C)CCC[C@H](C)[C@H](O)[C@@H](C)C(=O)C(C)(C)[C@@H](O)CC(=O)O1` [Epothilone B], the IC50 worked out at 2.2 nM in the test with HCT-116 cells (setting [3]) and 3.9 nM in test [1] (Homo sapiens). In addition, the “RR (resistance ratio): fold change between IC50 values from HCT-116-Irv and HCT-116” value in test [1] is given as 1.8.
